Among the data in patent publication US11078228B2, “Ectonucleotidase inhibitors and methods of use thereof” (Calithera Biosciences, Inc., priority 2018, dated 2021) are IC50 values, retold here.

For the assay, the target named is recombinant CD73 (Homo sapiens (Human), UniProt P21589). Nature of the assay: Assay 2: Inhibition of the CD73 enzyme in vitro (0.05 nM CD73, 1 hour 37° C., Malachite Green). Type of assay: biochemical. The conditions noted are these: 0.05 nM CD73, 50 μM AMP, 1 hour at 37° C. A digest of the protocol: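 Soluble recombinant CD73 reactions ran 1 hour at 37° C. Malachite Green was then added, and absorbance at 630 nm was read after 5 min at room temperature. Inorganic phosphate was quantified from a phosphate standard curve.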
recombinant CD73, sequence (P21589 27-547): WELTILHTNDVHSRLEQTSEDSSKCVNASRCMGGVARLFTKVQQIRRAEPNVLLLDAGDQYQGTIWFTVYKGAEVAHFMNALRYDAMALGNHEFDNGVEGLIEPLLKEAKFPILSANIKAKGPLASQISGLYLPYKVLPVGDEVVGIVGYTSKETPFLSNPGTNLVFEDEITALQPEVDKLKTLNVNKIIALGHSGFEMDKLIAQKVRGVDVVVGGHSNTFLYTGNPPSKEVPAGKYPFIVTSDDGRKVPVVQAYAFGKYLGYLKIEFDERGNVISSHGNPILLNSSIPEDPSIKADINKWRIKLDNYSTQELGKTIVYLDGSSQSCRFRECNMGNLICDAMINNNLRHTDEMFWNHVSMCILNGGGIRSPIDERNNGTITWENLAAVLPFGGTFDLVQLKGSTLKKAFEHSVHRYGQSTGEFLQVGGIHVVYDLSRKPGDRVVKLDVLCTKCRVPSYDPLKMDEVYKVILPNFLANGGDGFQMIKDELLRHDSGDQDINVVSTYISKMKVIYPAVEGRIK
Usually IC50 stands for the concentration that gives 50% inhibition. `C#C[C@@]1(O)[C@@H](COC(Cc2ccccc2)(C(=O)O)C(=O)O)O[C@@H](n2cnc3c(NCC(C)(C)O)nc(Cl)nc32)[C@@H]1O` [Example 94, 2-benzyl-2-(((2R,3S,4R,5R)-5-(2-chloro-6-((2-hydroxy-2-methylpropyl)amino)-9H-purin-9-yl)-3-ethynyl-3,4-dihydroxytetrahydrofuran-2-yl)methoxy)malonic acid]: the IC50 was 5 nM.

With `C#C[C@@]1(O)[C@@H](COC(Cc2ccccc2)(C(=O)O)C(=O)O)O[C@@H](n2cnc3c(NCc4ccncc4)nc(Cl)nc32)[C@@H]1O` [Example 78, 2-benzyl-2-(((2R,3S,4R,5R)-5-(2-chloro-6-((pyridin-4-ylmethyl)amino)-9H-purin-9-yl)-3-ethynyl-3,4-dihydroxytetrahydrofuran-2-yl)methoxy)malonic acid], the IC50 came out at 2 nM.

On to `C#C[C@@]1(O)[C@@H](COC(Cc2ccc(N3CCCN(C)C3=O)cc2)(C(=O)O)C(=O)O)O[C@@H](n2cnc3c(NCC4CC4)nc(Cl)nc32)[C@@H]1O` [Example 150, 2-(((2R,3S,4R,5R)-5-(2-chloro-6-((cyclopropylmethyl)amino)-9H-purin-9-yl)-3-ethynyl-3,4-dihydroxytetrahydrofuran-2-yl)methoxy)-2-(4-(3-methyl-2-oxotetrahydropyrimidin-1 (2H)-yl)benzyl)malonic acid], for which the IC50 was found to be 0.16 nM.

Turning to `C#C[C@@]1(O)[C@@H](COC(Cc2ccc(N3CCCNC3=O)cc2)(C(=O)O)c2cscn2)O[C@@H](n2cnc3c(N)nc(Cl)nc32)[C@@H]1O` (stereo partly drawn) [Example 175, 2-(((2R,3S,4R,5R)-5-(6-amino-2-chloro-9H-purin-9-yl)-3-ethynyl-3,4-dihydroxytetrahydrofuran-2-yl)methoxy)-3-(4-(2-oxotetrahydropyrimidin-1 (2H)-yl)phenyl)-2-(thiazol-4-yl)propanoic acid], the IC50 was determined as 1 nM.

Take `C#C[C@@]1(O)[C@@H](COC(Cc2ccccc2)(C(=O)O)C(=O)O)O[C@@H](n2cnc3c(NCc4ccccc4Cl)nc(Cl)nc32)[C@@H]1O` [Example 77, 2-benzyl-2-(((2R,3S,4R,5R)-5-(2-chloro-6-((2-chlorobenzyl)amino)-9H-purin-9-yl)-3-ethynyl-3,4-dihydroxytetrahydrofuran-2-yl)methoxy)malonic acid]: the IC50 stood at 2 nM.

For the compound `C#C[C@@]1(O)[C@@H](COC(Cc2ccccc2)(C(=O)O)C(=O)O)O[C@@H](n2cnc3c(N(C)C4CC(O)C4)nc(Cl)nc32)[C@@H]1O` (stereo partly drawn) [Example 48, 2-benzyl-2-(((2R,3S,4R,5R)-5-(2-chloro-6-((3-hydroxycyclobutyl)-(methyl)amino)-9H-purin-9-yl)-3-ethynyl-3,4-dihydroxytetrahydrofuran-2-yl)methoxy)malonic acid], the half-inhibitory concentration (IC50) came out at 0.5 nM.

As for `C#C[C@@]1(O)[C@@H](COC(Cc2ccc(-c3cccn(CCC)c3=O)cc2)(C(=O)O)C(=O)O)O[C@@H](n2cnc3c(N)nc(Cl)nc32)[C@@H]1O` [Example 19, 2-(((2R,3S,4R,5R)-5-(6-amino-2-chloro-9H-purin-9-yl)-3-ethynyl-3,4-dihydroxytetrahydrofuran-2-yl)methoxy)-2-(4-(2-oxo-1-propy-1,2-dihydropyridin-3-yl)benzyl)malonic acid], the IC50 turned out to be 0.2 nM.

Turning to `C#C[C@@]1(O)[C@@H](COC(Cc2ccc(N3CCCC3)cc2)(C(=O)O)C(=O)O)O[C@@H](n2cnc3c(N)nc(Cl)nc32)[C@@H]1O` [Example 144, 2-(((2R,3S,4R,5R)-5-(6-amino-2-chloro-9H-purin-9-yl)-3-ethynyl-3,4-dihydroxytetrahydrofuran-2-yl)methoxy)-2-(4-(pyrrolidin-1-yl)benzyl)malonic acid], the IC50 was 1 nM.

On to `C#C[C@@]1(O)[C@@H](CO[C@@](Cc2ccccc2)(C(=O)O)c2cscn2)O[C@@H](n2cnc3c(NC(C)C)nc(Cl)nc32)[C@@H]1O` (single isomer, unassigned) [Example 171], for which the IC50 amounted to 96 nM.

For `C#C[C@@]1(O)[C@@H](COC(Cc2ccc(-c3cccn(CCO)c3=O)cc2)(C(=O)O)C(=O)O)O[C@@H](n2cnc3c(NC(C)C)nc(Cl)nc32)[C@@H]1O` [Example 153, 2-(((2R,3S,4R,5R)-5-(2-chloro-6-(isopropylamino)-9H-purin-9-yl)-3-ethynyl-3,4-dihydroxytetrahydrofuran-2-yl)methoxy)-2-(4-(1-(2-hydroxyethyl)-2-oxo-1,2-dihydropyridin-3-yl)benzyl)malonic acid], the IC50 came to 0.48 nM.

On to `C#C[C@@]1(O)[C@@H](COC(Cc2ccccc2)(C(=O)O)C(=O)O)O[C@@H](n2cnc3c(NCC4CCC4)nc(Cl)nc32)[C@@H]1O` [Example 45, 2-benzyl-2-(((2R,3S,4R,5R)-5-(2-chloro-6-((cyclobutylmethyl)amino)-9H-purin-9-yl)-3-ethynyl-3,4-dihydroxytetrahydrofuran-2-yl)methoxy)malonic acid], for which the IC50 came out at 1 nM.

For `C#C[C@@]1(O)[C@@H](COC(Cc2ccccc2)(C(=O)O)C(=O)O)O[C@@H](n2cnc3c(-c4cnn(S(=O)(=O)c5ccc(C)cc5)c4)nc(Cl)nc32)[C@@H]1O` [Example 159, 2-benzyl-2-(((2R,3S,4R,5R)-5-(2-chloro-6-(1-tosyl-1H-pyrazol-4-yl)-9H-purin-9-yl)-3-ethynyl-3,4-dihydroxytetrahydrofuran-2-yl)methoxy)malonic acid], the IC50 came to 476 nM.

On to `C#C[C@@]1(O)[C@@H](COC(Cc2ccc(-c3cccn(CCC)c3=O)cc2)(C(=O)O)C(=O)O)O[C@@H](n2cnc3c(NC)nc(Cl)nc32)[C@@H]1O` [Example 160, 2-(((2R,3S,4R,5R)-5-(2-chloro-6-(methylamino)-9H-purin-9-yl)-3-ethynyl-3,4-dihydroxytetrahydrofuran-2-yl)methoxy)-2-(4-(2-oxo-1-propy-1,2-dihydropyridin-3-yl)benzyl)malonic acid], for which the IC50 is 0.31 nM.

In the case of `C#C[C@@]1(O)[C@@H](COC(Cc2ccccc2)(C(=O)O)C(=O)O)O[C@@H](n2cnc3c(N4CCC[C@H]4CO)nc(Cl)nc32)[C@@H]1O` [Example 104, 2-benzyl-2-(((2R,3S,4R,5R)-5-(2-chloro-6-((S)-2-(hydroxymethyl)-pyrrolidin-1-yl)-9H-purin-9-yl)-3-ethynyl-3,4-dihydroxytetrahydrofuran-2-yl)methoxy)malonic acid], the half-maximal inhibitory concentration (IC50) stood at 2 nM.

For the compound `C#C[C@@]1(O)[C@@H](COC(Cc2cc(C)on2)(C(=O)O)C(=O)O)O[C@@H](n2cnc3c(NC(C)C)nc(Cl)nc32)[C@@H]1O` [Example 110, 2-(((2R,3S,4R,5R)-5-(2-chloro-6-(isopropylamino)-9H-purin-9-yl)-3-ethynyl-3,4-dihydroxytetrahydrofuran-2-yl)methoxy)-2-((5-methylisoxazol-3-yl)methyl)malonic acid], the half-maximal inhibitory concentration (IC50) turned out to be 3 nM.

As for `C#C[C@@]1(O)[C@@H](COC(Cc2ccc(N3CCCNC3=O)cc2)(C(=O)O)C(=O)O)O[C@@H](n2ccc(=O)[nH]c2=O)[C@@H]1O` [Example 134, 2-(((2R,3S,4R,5R)-5-(2,4-dioxo-3,4-dihydropyrimidin-1(2H)-yl)-3-ethynyl-3,4-dihydroxytetrahydrofuran-2-yl)methoxy)-2-(4-(2-oxotetrahydropyrimidin-1 (2H)-yl)benzyl)malonic acid], the IC50 worked out at 16 nM.

On to `C#C[C@@]1(O)[C@@H](CO[C@@](Cc2ccccc2)(C(=O)O)c2cscn2)O[C@@H](n2cnc3c(NCC4CC4)nc(Cl)nc32)[C@@H]1O` (single isomer, unassigned) [Example 173], for which the half-maximal inhibitory concentration (IC50) amounted to 112 nM.

For `C#C[C@@]1(O)[C@@H](COC(Cc2ccccc2)(C(=O)O)C(=O)O)O[C@@H](n2cnc3c(N[C@@H](C)c4ccccc4)nc(Cl)nc32)[C@@H]1O` [Example 63, 2-benzyl-2-(((2R,3S,4R,5R)-5-(2-chloro-6-(((S)-1-phenylethyl)amino)-9H-purin-9-yl)-3-ethynyl-3,4-dihydroxytetrahydrofuran-2-yl)methoxy)malonic acid], the IC50 worked out at 1 nM.

As for `C#C[C@@]1(O)[C@@H](COC(Cc2ccc(-c3ccccc3C(=O)O)cc2)(C(=O)O)C(=O)O)O[C@@H](n2cnc3c(N)nc(Cl)nc32)[C@@H]1O` [Example 54, 2-(((2R,3S,4R,5R)-5-(6-amino-2-chloro-9H-purin-9-yl)-3-ethynyl-3,4-dihydroxytetrahydrofuran-2-yl)methoxy)-2-((2′-carboxy-[1,1′-biphenyl]-4-yl)methyl)malonic acid], the IC50 stood at 0.2 nM.

Take `C#C[C@@]1(O)[C@@H](COC(C(=O)O)S(=O)(=O)c2ccccc2)O[C@@H](n2cnc3c(N4CCOCC4)nc(Cl)nc32)[C@@H]1O` (stereo partly drawn) [Example 119, 2-(((2R,3S,4R,5R)-5-(2-chloro-6-morpholino-9H-purin-9-yl)-3-ethynyl-3,4-dihydroxytetrahydrofuran-2-yl)methoxy)-2-(phenylsulfonyl)acetic acid]: the IC50 was found to be 4610 nM.

Consider `C#C[C@@]1(O)[C@@H](COC(Cc2cscn2)(C(=O)O)C(=O)O)O[C@@H](n2cnc3c(N)nc(Cl)nc32)[C@@H]1O` [Example 126, 2-(((2R,3S,4R,5R)-5-(6-amino-2-chloro-9H-purin-9-yl)-3-ethynyl-3,4-dihydroxytetrahydrofuran-2-yl)methoxy)-2-(thiazol-4-ylmethyl)malonic acid], for which the half-inhibitory concentration (IC50) was determined as 9 nM.

For the compound `C#C[C@@]1(O)[C@@H](COC(Cc2ccc(N3CCCN(CCO)C3=O)cc2)(C(=O)O)C(=O)O)O[C@@H](n2cnc3c(NC(C)C)nc(Cl)nc32)[C@@H]1O` [Example 139, 2-(((2R,3S,4R,5R)-5-(2-chloro-6-(isopropylamino)-9H-purin-9-yl)-3-ethynyl-3,4-dihydroxytetrahydrofuran-2-yl)methoxy)-2-(4-(3-(2-hydroxyethyl)-2-oxotetrahydropyrimidin-1 (2H)-yl)benzyl)malonic acid], the IC50 was found to be 0.13 nM.

For `Nc1nc(Cl)nc2c1ncn2[C@@H]1O[C@H](COC(Cc2ccccc2)(C(=O)O)C(=O)O)[C@](O)(C#CC2CC2)[C@H]1O` [Compound 4, 2-(((2R,3S,4R,5R)-5-(6-amino-2-chloro-9H-purin-9-yl)-3-(cyclopropylethynyl)-3,4-dihydroxytetrahydrofuran-2-yl)methoxy)-2-benzylmalonic acid], the IC50 is 0.5 nM.
